What all share (type): protein assay
The target in experiment [1] is T1, Baculoviral IAP repeat-containing protein 3/Huntingtin (Homo sapiens) (UniProt Q13489+P42858). Description: Induction of IAP-huntingtin interaction-mediated huntingtin protein degradation in fibroblasts derived from normal human subjects assessed as huntingtin protein level at 10 uM incubated for 24 hrs by Western blot method (reference value: 100%). Background: A western blot detects proteins with antibodies after separation by electrophoresis.
T1 sequence (P42858 whole entry, looked up): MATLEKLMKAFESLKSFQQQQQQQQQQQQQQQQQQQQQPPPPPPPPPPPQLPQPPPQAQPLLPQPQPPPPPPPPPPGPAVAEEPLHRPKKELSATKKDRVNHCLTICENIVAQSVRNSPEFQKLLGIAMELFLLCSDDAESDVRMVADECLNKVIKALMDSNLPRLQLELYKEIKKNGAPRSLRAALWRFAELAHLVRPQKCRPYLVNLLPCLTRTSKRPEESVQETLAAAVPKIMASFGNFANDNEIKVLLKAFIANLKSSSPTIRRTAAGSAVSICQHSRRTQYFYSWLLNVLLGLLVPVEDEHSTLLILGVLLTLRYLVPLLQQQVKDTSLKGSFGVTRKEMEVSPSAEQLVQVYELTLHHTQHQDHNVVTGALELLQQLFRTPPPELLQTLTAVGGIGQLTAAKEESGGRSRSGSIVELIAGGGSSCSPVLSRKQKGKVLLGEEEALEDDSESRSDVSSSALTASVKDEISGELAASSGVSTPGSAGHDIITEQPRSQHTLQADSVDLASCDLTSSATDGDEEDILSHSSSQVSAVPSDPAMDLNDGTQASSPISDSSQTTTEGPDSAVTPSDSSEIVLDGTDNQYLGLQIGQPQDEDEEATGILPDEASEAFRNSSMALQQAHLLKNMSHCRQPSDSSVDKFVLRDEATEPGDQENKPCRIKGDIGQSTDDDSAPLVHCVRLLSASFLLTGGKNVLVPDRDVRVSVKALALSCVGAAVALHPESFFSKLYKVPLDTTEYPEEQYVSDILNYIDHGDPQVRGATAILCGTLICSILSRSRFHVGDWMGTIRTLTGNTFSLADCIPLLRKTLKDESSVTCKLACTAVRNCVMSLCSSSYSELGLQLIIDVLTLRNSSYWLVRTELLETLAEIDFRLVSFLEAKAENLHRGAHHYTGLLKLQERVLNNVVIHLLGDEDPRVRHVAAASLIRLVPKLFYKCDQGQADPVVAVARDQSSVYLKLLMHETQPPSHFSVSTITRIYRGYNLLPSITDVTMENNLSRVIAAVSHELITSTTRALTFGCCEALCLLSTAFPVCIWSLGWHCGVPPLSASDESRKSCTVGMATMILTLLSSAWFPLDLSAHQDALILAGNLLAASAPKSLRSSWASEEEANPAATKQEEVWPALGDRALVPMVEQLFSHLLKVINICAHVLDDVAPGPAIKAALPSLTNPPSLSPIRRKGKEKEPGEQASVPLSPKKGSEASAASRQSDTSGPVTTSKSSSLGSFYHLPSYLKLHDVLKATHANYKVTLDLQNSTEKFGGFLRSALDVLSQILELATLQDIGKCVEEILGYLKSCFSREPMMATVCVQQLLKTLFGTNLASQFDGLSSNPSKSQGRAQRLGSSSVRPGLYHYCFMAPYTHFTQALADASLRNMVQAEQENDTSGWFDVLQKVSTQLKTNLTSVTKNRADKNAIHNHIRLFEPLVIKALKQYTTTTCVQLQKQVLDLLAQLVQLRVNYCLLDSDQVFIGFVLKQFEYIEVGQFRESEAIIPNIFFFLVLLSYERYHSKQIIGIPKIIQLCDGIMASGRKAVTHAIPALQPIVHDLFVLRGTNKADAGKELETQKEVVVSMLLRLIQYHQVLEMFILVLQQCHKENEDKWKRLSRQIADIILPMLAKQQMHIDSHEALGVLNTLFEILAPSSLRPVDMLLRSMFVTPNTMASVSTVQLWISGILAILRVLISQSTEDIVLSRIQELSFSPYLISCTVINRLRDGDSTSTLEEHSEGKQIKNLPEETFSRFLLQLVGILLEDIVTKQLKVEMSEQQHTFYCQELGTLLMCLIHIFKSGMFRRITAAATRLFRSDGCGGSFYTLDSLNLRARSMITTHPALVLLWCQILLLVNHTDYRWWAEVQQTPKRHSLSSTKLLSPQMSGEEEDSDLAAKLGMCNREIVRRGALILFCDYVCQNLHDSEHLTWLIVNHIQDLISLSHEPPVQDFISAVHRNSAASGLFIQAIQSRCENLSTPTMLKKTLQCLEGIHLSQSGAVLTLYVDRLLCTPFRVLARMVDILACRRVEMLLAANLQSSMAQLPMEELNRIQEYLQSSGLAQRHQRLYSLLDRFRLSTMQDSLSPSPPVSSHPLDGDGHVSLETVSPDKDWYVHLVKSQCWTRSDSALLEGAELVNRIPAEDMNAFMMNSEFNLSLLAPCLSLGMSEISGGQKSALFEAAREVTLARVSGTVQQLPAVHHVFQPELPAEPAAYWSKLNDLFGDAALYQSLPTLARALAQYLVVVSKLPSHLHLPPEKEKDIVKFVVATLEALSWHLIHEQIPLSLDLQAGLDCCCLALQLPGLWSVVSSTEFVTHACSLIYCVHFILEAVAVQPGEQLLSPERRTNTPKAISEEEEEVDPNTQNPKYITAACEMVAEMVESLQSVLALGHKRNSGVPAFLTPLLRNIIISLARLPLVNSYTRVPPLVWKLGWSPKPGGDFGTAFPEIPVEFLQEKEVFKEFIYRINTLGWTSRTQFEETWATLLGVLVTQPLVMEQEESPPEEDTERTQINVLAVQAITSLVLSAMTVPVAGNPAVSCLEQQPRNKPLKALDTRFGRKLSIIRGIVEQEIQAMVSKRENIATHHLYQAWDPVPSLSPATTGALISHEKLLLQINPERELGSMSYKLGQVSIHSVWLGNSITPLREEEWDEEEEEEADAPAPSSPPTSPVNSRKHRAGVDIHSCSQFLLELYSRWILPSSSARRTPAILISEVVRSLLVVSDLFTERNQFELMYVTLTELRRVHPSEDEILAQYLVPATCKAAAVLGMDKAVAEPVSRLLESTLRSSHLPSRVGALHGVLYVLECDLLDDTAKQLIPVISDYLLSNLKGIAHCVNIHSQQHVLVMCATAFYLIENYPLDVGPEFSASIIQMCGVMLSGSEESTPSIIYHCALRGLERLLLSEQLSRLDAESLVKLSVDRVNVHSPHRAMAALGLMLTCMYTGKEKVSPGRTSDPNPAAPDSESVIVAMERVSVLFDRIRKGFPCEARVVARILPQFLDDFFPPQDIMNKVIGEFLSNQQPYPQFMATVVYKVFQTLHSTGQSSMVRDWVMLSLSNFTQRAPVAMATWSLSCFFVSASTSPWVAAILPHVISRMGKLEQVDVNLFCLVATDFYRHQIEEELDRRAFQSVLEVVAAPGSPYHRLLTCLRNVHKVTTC
T1 sequence (Q13489 whole entry, looked up): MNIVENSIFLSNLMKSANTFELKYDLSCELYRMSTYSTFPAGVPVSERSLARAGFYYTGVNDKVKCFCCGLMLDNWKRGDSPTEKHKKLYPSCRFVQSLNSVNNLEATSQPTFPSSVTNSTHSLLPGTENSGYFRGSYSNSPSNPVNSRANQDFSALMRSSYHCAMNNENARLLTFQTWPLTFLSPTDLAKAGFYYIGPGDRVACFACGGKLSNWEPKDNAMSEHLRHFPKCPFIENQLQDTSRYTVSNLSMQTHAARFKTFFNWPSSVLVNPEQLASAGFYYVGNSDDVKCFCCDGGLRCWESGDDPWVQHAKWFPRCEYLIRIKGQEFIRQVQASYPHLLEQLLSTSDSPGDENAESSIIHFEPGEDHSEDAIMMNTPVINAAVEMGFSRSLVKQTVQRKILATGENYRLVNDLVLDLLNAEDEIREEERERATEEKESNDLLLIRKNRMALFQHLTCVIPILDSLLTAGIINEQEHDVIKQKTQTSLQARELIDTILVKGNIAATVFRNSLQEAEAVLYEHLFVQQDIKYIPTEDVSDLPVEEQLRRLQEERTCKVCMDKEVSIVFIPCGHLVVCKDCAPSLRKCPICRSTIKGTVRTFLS

The target in experiment [2] is T1, Baculoviral IAP repeat-containing protein 3/Huntingtin (Homo sapiens). In words: Induction of IAP-huntingtin interaction-mediated huntingtin protein degradation in fibroblasts derived from normal human subjects at 10 uM incubated for 24 to 72 hrs by Western blot method.
For experiment [3] the target is unchanged. In words: Induction of IAP-huntingtin interaction-mediated huntingtin protein degradation in fibroblasts derived from normal human subjects assessed as huntingtin protein level at 10 uM incubated for 96 hrs by Western blot method (reference value: 100%).
The target is the same in experiment [4]. In words: Induction of IAP-huntingtin interaction-mediated huntingtin protein degradation in fibroblasts derived from Huntington's disease patient at 10 uM incubated for 24 to 72 hrs by Western blot method.
For experiment [5] the target is unchanged. In words: Induction of IAP-huntingtin interaction-mediated huntingtin protein degradation in fibroblasts derived from normal human subjects assessed as huntingtin protein level at 10 uM incubated for 72 hrs by Western blot method (reference value: 100%).
For experiment [6] the target is unchanged. Description: Induction of IAP-huntingtin interaction-mediated huntingtin protein degradation in fibroblasts derived from normal human subjects assessed as huntingtin protein level at 10 uM incubated for 48 hrs by Western blot method (reference value: 100%).
Experiment [7] shares this target. In words: Induction of IAP-huntingtin interaction-mediated huntingtin protein degradation in fibroblasts derived from Huntington's disease patient incubated for 48 to 72 hrs by Western blot method.
Experiment [8] has the same target. Description: Induction of immobilized GST tagged BIR3 (unknown origin)/soluble GST-tagged huntingtin 62Q mutant (unknown origin) interaction at 10 uM in presence of 3 and 10 uM MV1 incubated for 1.5 hrs at 37 degC by ELISA. (In general: ELISA stands for enzyme-linked immunosorbent assay.)
Experiment [9] has the same target. Description: Induction of immobilized GST tagged BIR3 (unknown origin)/soluble GST-tagged huntingtin 62Q mutant (unknown origin) interaction at 10 uM in presence of 10 and 100 uM thioflavin T incubated for 1.5 hrs at 37 degC by ELISA.
For experiment [10] the target is unchanged. Description: Induction of immobilized GST tagged BIR3 (unknown origin)/insoluble GST-tagged huntingtin 62Q mutant (unknown origin) interaction at 3 to 30 uM incubated for 1.5 hrs at 37 degC by ELISA.
The target is the same in experiment [11]. Description: Induction of IAP-huntingtin interaction-mediated huntingtin protein degradation in fibroblasts derived from Huntington's disease patient incubated for 24 hrs by Western blot method.
The target is the same in experiment [12]. In words: Induction of immobilized GST tagged BIR3 (unknown origin)/soluble GST-tagged huntingtin 62Q mutant (unknown origin) interaction at 3 to 30 uM incubated for 1.5 hrs at 37 degC by ELISA.

Active and inactive are the calls of the source. The rule behind the calls is not given here. Where a SMILES comes first, the peptide text is derived from it. [ ]: non-standard residue; d: D form. The star is where a group is joined. X1 = CN(C)c1ccc(/N=N/c2nc3ccc(OCCOCCOCCN*)cc3s2)cc1; Dip = N[C@H](C(=O)O)C(c1ccccc1)c1ccccc1; Chg = N[C@H](C(=O)O)C1CCCCC1; NMeA = CN[C@@H](C)C(=O)O

As to `CC(C)C[C@H](NC(=O)[C@@H](O)[C@H](N)Cc1ccccc1)C(=O)NCCOCCOCCOc1ccc2nc(/N=N/c3ccc(N(C)C)cc3)sc2c1`, the outcome in experiment [1], in [2], in experiment [3], in experiment [4], in [5] and in experiment [6] was Active.

In the case of `CN[C@@H](C)C(=O)N[C@H](C(=O)N1CCC[C@H]1C(=O)N[C@H](C(=O)NCCOCCOCCOc1ccc2nc(/N=N/c3ccc(N(C)C)cc3)sc2c1)C(c1ccccc1)c1ccccc1)C1CCCCC1` (H-[NMeA][Chg]P[Dip]-X1), the Activity in experiment [1] was 72%; in experiment [3] it was 44%; in experiment [5] it was 76%; in experiment [6] it was 70%; in experiment [11], “Dose-dependent effect”. The result in experiment [7], in experiment [4], in experiment [10] and in [12] was Active. For the same compound, the result in [8] and in [9] was inactive.

As for `Cc1ccc2nc(-c3ccc(NCCOCCOCCNC(=O)[C@H](CC(C)C)NC(=O)[C@@H](O)[C@H](N)Cc4ccccc4)cc3)sc2c1`, the result in experiment [1], in experiment [2], in experiment [3], in experiment [4], in [5] and in experiment [6] was Active.

These data come from ChEMBL document CHEMBL4184224, “Degradation of huntingtin mediated by a hybrid molecule composed of IAP antagonist linked to phenyldiazenyl benzothiazole derivative” (Bioorg Med Chem Lett, 2018).
